In US7084136B2, “Drug composition antagonistic to both PGD2/TXA2 receptors” (Shionogi & Co., Ltd., priority 2000, dated 2006):

Key:
PGD2 receptor [1] = biological target: T1, PGD2 receptor (Homo sapiens, UniProt Q13258); assay: Antagonistic activity against PGD2 receptor using human platelet (inhibition of PGD2-induced cAMP increase); format: cell-based
T1 construct: A suspension adjusted to contain the platelets at a final concentration of 5×10^8/ml was warmed at 37° C; endogenous in cells; host or cells: washed human platelets from a healthy volunteer
T1 sequence (Q13258 1-359): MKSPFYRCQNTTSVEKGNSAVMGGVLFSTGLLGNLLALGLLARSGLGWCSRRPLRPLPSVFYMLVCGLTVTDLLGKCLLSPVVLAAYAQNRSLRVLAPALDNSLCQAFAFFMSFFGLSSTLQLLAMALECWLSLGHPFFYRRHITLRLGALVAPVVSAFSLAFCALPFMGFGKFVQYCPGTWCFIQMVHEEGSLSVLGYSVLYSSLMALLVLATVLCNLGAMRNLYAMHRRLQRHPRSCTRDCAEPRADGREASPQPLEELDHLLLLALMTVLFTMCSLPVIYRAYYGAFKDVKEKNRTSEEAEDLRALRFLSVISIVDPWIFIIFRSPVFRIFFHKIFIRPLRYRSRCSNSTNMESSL
Experimental: Experiment 3 Evaluation of Antagonistic Activity Against PGD2 Receptor
Receptor Using Human Platelet
Peripheral blood was collected from a healthy volunteer using a syringe in which 1/9 volume of a citric acid/dextrose solution was previously added. The sample was subjected to centrifugation at 1200 rpm for 10 min to obtain the supernatant (PRP: platelet rich plasma). The resultant PRP was washed 3 times with a washing buffer and the number of platelets was counted with a micro cell counter. A suspension adjusted to contain the platelets at a final concentration of 5×10^8/ml was warmed at 37° C., then subjected to the pre-treatment with 3-isobutyl-1-methylxanthine (0.5 mM) for 5 min. To the suspension was added a test compound diluted at various concentration, and 10 minutes later, 0.1 μM PGD2 was added to induce the reaction 2 minutes later, hydrochloric acid was added to terminate the reaction. The platelet was destroyed with an ultrasonic homogenizer. After centrifugation, the cAMP in the supernatant was determined by radioimmunoassay. PGD2 receptor antagonism of a drug was evaluated as follows: the inhibition rate regarding cAMP increased by the addition of PGD2 was determined at each concentration, and the concentration of the drug required for 50% inhibition (IC50) was calculated.

PGD2 receptor [2] = biological target: T1, PGD2 receptor; assay: Binding activity to PGD2 receptor ([3H]PGD2, human platelet membrane fraction)
Experimental: Experiment 1 Binding Activity to PGD2 Receptor
(1) Preparation of Human Platelet Membrane Fraction
Blood was collected using a plastic syringe containing 3.8% sodium citrate from the vein of healthy volunteers (adult male and female), then put into a plastic test tube and mixed by slow-reversion. The sample was then centrifuged at 1800 rpm, for 10 min at room temperature, and the supernatant containing PRP (platelet-rich plasma) was collected. The PRP was re-centrifuged at 2300 rpm, for 22 min at room temperature to obtain platelets. The platelets were homogenized using a homogenizer (Ultra-Turrax) followed by centrifugation 3 times at 20,000 rpm, 10 min at 4° C. to obtain a platelet membrane fraction. After protein determination, the membrane fraction was adjusted to 2 mg/ml and preserved in a refrigerator at −80° C. until using for the binding test.
(2) Binding to PGD2 Receptor
To a binding-reaction solution (50 mM Tris/HCl, pH 7.4, 5 mM MgCl2) (0.2 ml) were added the human platelet membrane fraction (0.1 mg) and 5 nM [^3H]PGD2 (115 Ci/mmol), and the mixture was reacted at 4° C. for 90 min. After the reaction, the mixture was filtered through a glass fiber filter paper and washed several times with cooled physiological saline, then the radioactivity retained on the filter paper was measured. The specific-binding ratio was calculated by subtracting the non-specific binding ratio which is the radioactivity similarly measured in the presence of 10 μM PGD2 from the total binding. The inhibitory activity of each compound was expressed as the concentration required for 50% inhibition (IC50), which was determined by depicting a substitution curve by plotting the binding ratio (%) in the presence of each compound, where the binding ratio in the absence of a test compound is 100%.

PGD2 receptor [3] = assay: Acceleration of vascular permeability of conjunctiva induced by PGD2 (Evans blue dye leakage); format: in vivo, guinea pig; details: for ED50 PGD2: oral, 1 h before challenge, 0.1% PGD2 instillation, conjunctival dye leakage, guinea pigs; for inhibition of the increase in vascular permeability in conjunctiva by the stimulation with PGD2: summary of Table 80, oral 1 h before challenge, guinea pig
Experimental: Acceleration of Vascular Permeability of Conjunctiva Induced by PGD2 and U-46619
Using male Hartley guinea pigs, PGD2- and TxA2 receptor-mediated increase in conjunctival vascular permeability was produced by instillation of each 10 μl solution of either 0.1% PGD2 or U-46619 (TXA2 receptor agonist) to the both eyes without anesthetization. Immediately after that, Evans blue dye (20 mg/kg) was intravenously injected. 30 min after the challenge, guinea pigs were sacrificed by bleeding under anesthesia with Pentobarbital (30 mg/kg, i.p.) and the tissue of conjunctiva was removed. The dye leaked into the tissue was extracted in formamide 3 ml at 60° C. for more than 24 h, and then centrifuged. The absorbance of the supernatant was measured at 620 nm. The amount of dye was calculated from the calibration curve of Evans blue dye. Each compound was suspended in 0.5% methyl-cellulose and administrated orally at 1 h before the challenge. The antagonistic activity was evaluated by the inhibition ratio against the dye leaked into conjunctiva caused by PGD2 or U-46619 at each dose and then a 50% effective dose of inhibition (ED50 value) of each compound was calculated.

[4] = comparative experiment in accordance with Experiment 3, read-out: Experiment 3 Antagonistic activity against PGD2 receptor IC50
[5] = comparative experiment in accordance with Experiment 1, read-out: Experiment 1 Antagonistic activity against PGD2 receptor IC50

`O=C(O)CCC/C=C\C[C@H]1[C@@H]2CC[C@@H](C2)[C@@H]1NS(=O)(=O)c1ccccc1` [A, reference compound] was tested, and the IC50 (PGD2 receptor [1]; [4]) was over 10 µM, the IC50 (PGD2 receptor [2]; [5]) was over 10 µM and the “ED50 PGD2” value (PGD2 receptor [3]) was over 30 mg/kg. The “inhibition of the increase in vascular permeability in conjunctiva by the stimulation with PGD2” value (PGD2 receptor [3]) was “suppressed only U-46619-induced response”.
`Cc1cccn1S(=O)(=O)c1ccc(C(=O)N[C@@H]2[C@@H](CCCC/C=C/C(=O)O)C[C@H]3C[C@@H]2C3(C)C)s1` [II-7I-55a] showed an IC50 (PGD2 receptor [1]; [4]) of 0.063 µM, an IC50 (PGD2 receptor [1]; human platelet, 0.1 μM PGD2, read-out: Inhibitory activity for the increase of cAMP caused by PGD2 in human platelet IC50) of 0.063 µM and an IC50 (PGD2 receptor [2]; [5]) of 0.0018 µM. The IC50 (PGD2 receptor [2]; human platelet membrane fraction, read-out: Binding activity to PGD2 receptor in human platelet membrane fraction IC50) was 0.0018 µM, the “ED50 PGD2” value (PGD2 receptor [3]) was 0.33 mg/kg and the “inhibition of the increase in vascular permeability in conjunctiva by the stimulation with PGD2” value (PGD2 receptor [3]) was “showed both responses”.
